Source: patent US8871789B2, “Method of preventing or treating viral infection” (The United States of America, as represented by the …, priority 2010, dated 2014)

Columns and labels:
JMJD2E = target: T1, JMJD2E (Homo sapiens, UniProt B2RXH2); assay: AlphaLISA assay, JMJD2E histone demethylase inhibition; format: biochemical; conditions: Table 2; JMJD2E; AlphaLISA, in triplicate; read-out: IC50
T1 sequence (B2RXH2 1-506): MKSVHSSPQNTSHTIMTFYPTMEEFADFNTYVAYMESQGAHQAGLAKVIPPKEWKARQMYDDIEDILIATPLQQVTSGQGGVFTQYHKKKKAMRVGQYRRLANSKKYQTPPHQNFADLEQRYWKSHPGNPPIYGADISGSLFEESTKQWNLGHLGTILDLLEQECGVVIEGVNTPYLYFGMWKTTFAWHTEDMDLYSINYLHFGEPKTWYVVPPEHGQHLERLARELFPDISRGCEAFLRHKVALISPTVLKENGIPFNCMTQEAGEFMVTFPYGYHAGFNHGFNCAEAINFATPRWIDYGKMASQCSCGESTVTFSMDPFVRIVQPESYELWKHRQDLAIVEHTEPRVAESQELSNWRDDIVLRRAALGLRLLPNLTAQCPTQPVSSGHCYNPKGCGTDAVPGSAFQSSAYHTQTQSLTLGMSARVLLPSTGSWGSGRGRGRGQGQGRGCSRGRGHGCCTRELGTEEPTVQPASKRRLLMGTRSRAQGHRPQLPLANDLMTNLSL

HSV-1 [1] = format: cell-based, mouse
Experimental: FIG. 20 is a dot plot showing latently infected trigeminal ganglia that were explanted in the presence of DMSO, 100 mM ACV, or 50 mM ML324 for 48 hours. The total number of UL29+ neurons per ganglia is graphed, representing the number of neurons undergoing viral reactivation. Data are means±SEM.

HSV-1 [2] = assay: MRC-5 cells, ML324 added at times relative to HSV-1 infection; format: cell-based; conditions: added at 2 hours after infection; HSV-1 1.0 MOI; FIG. 17
Experimental: FIG. 17 is a line graph showing MRC-5 cells that were treated with DMSO or ML324 at the indicated time relative to infection with HSV-1 (1.0 MOI). Viral and cellular mRNA levels were determined at 4 hours after infection. Data are means±SEM.

HSV-1 [3] = format: cell-based, Balb/c mice; set-up: reduction of viral reactivation (viral yield): unit of the concentration uncertain
Experimental: FIG. 18 is a dot plot showing latently infected ganglia that were explanted in the presence of DMSO, ACV (100 mM), or ML324 (50 mM) for 48 hrs. Viral yields were determined from one half of each ganglia at 48 hrs (DMSO, ACV, ML324) and from the other half of each ganglia after drug reversal for an additional 72 hrs (ACV-R, ML324-R) [Wilcoxon matched pairs signed rank test, ACV vs ACV-R n=8, ML324 vs ML324-R n=10]. Data are means±SEM.
FIG. 19 is a dot plot showing viral yields from HSV-1 latently infected trigeminal ganglia that were explanted in the presence of DMSO, or 2 mM DMOG or 50 mM ML324 for 48 hours (DMSO versus DMOG: P=0.0015, Wilcoxon matched-pairs signed rank test; n=12; DMSO versus ML324: P<0.0001; n=20). Data are means±SEM.
Viral yields decrease from HSV-1 latently infected ganglia explanted in the presence of LSD1 or JMJD2 inhibitors (FIG. 11). Balb/c mice were infected with 5×10^6 PFU HSV-1 (strain F) per eye after corneal scarification. Latently infected mice were sacrificed 45 days post clearance of the primary infection and trigeminal ganglia were rapidly explanted into culture in the presence of 2 mM DMOG, 2 mM TCP, or control (DMSO or ACV, acyclovir) for 48 hours. Post explant incubation, the ganglia were homogenized and briefly sonicated. The reactivated viral yield of each ganglia was determined by titering the clarified supernatant on Vero cells. Statistical comparisons were made using Wilcoxon signed rank test (paired ganglia) with a statistical significance of <0.05. Each data point was the result of a single ganglia divided and treated in the presence and absence of DMSO and DMOG or DMSO and TCP. Therefore, a Wilcoxon signed rank test was used to assess differences between each treated and untreated sample. The significant difference between DMSO control and DMOG was p=0.0018. This test used an exact p-value for small sample sizes with an a level of 0.05. n=20. Analyses were made using Prism (V5.0a) and are expressed as the mean+/−s.e.m.

HSV-1 [4] = assay: Plaque assay of Vero cells infected with HSV-1; format: cell-based; set-up: # Plaques: dose or concentration left out as unconfirmed; conditions: for # Plaques: 12 hours infection, then ACV or ML324 for 48 hours
Experimental: ML324 was ˜75-fold more efficient than DMOG. Additionally, ML324 (i) reduced viral yields in a dose-dependent manner (˜5 logs at 50 mM, FIG. 14); (ii) blocked viral IE gene transcription and reduced viral yields when cells were infected at high multiplicity of infection (MOI; FIGS. 15 and 16); and (iii) suppressed IE gene transcription, even when added at times after infection (>50% reduction at 2 hours after infection; FIG. 17). As further evidence for the efficacy of ML324, cells were infected with HSV to allow for a productive cycle of infection, followed by treatment with DMSO, ACV, or ML324.

[5] = 100 mM ACV or 50 mM ML324, 48 hours
[6] = treatment after productive cycle of infection

For `CN(C)CCCNC(=O)c1ccc(-c2cc(O)c3ncccc3c2)cc1` [Compound 4, N-(3-(dimethylamino)propyl)-4-(8-hydroxyquinolin-6-yl)benzamide], the IC50 (JMJD2E) was 920 nM, the “primary viral reactivation events” value (HSV-1 [1]; 50 mM ML324, 48 hours, FIG. 20) was “suppressed” and the “UL29+ cell clusters” value (HSV-1 [1]; [5]) was 2 clusters in 48 ganglia sections. For the same compound, the “isolated UL29+ neurons relative to DMSO” value (HSV-1 [1]; [5]) was “most significant reduction”, the “reduction of IE gene transcription when added after infection” value (HSV-1 [2]) was over 50% and the “reduction of viral reactivation (viral yield)” value (HSV-1 [3]; 50 (unit uncertain), 48 hours explant, FIG. 19) was 4.5 log. For the same compound, the “viral replication in ganglia after drug withdrawal” value (HSV-1 [3]; after ML324 withdrawal, additional 72 hrs, FIG. 18) was “robust viral replication”, the “# Plaques” value (HSV-1 [4]; MOI .001) was 0 and the “# Plaques” value (HSV-1 [4]; MOI .01) was 2. For the same compound, the “formation of HSV plaques” value (HSV-1 [4]; [6]) was “markedly suppressed” and the “spread of infection to adjacent cells (UL29 immunofluorescence)” value (HSV-1 [4]; [6]) was “markedly suppressed”.
